Source: patent US10118947B2, “Modulation of structured polypeptide specificity” (BICYCLE THERAPEUTICS LIMITED, priority 2013, dated 2018)
Read-outs that look alike come from different tables or passages of the source. Values belong to the compound of their own block, whether it stands above or below them. Numbered stars: 1 amine (or outer) side, 2 acyl side, 3 side chain; on linkers, the order of the positions; unused ones are H or OH. Bridge positions count the residues as written; N and C are the ends. Square brackets hold non-standard residues; d marks the D form. Peptide text beside a SMILES is read from it. Pro(trans-4-Ph) = O=C(O)[C@@H]1C[C@@H](c2ccccc2)CN1; Pro(trans-4-F) = O=C(O)[C@@H]1C[C@@H](F)CN1; Bip = N[C@@H](Cc1ccc(-c2ccccc2)cc1)C(=O)O; X2 = O=C([C@@H]1Cc2ccccc2N1[*:1])[*:2]; 2Nal = N[C@@H](Cc1ccc2ccccc2c1)C(=O)O; TBMB = c1c(C[*:1])cc(C[*:3])cc1C[*:2]; Hyp = O=C(O)[C@@H]1C[C@@H](O)CN1; Tic = O=C(O)[C@@H]1Cc2ccccc2CN1; Cha = N[C@@H](CC1CCCCC1)C(=O)O; Pen = CC(C)(S)[C@H](N)C(=O)O; Pip = O=C(O)[C@@H]1CCCCN1; Dpg = CCCC(N)(CCC)C(=O)O; Abu = CC[C@H](N)C(=O)O; Aib = CC(C)(N)C(=O)O; βAla = NCCC(=O)O

Assays:
human plasma Kallikrein = molecular target: T1, human plasma Kallikrein (Homo sapiens, UniProt P03952); assay: Functional enzyme inhibition assay with fluorogenic substrate Z-PheArg-AMC, human plasma Kallikrein; assay type: biochemical
T1 construct: purchased Stratech, UK
T1 sequence (P03952 20-638): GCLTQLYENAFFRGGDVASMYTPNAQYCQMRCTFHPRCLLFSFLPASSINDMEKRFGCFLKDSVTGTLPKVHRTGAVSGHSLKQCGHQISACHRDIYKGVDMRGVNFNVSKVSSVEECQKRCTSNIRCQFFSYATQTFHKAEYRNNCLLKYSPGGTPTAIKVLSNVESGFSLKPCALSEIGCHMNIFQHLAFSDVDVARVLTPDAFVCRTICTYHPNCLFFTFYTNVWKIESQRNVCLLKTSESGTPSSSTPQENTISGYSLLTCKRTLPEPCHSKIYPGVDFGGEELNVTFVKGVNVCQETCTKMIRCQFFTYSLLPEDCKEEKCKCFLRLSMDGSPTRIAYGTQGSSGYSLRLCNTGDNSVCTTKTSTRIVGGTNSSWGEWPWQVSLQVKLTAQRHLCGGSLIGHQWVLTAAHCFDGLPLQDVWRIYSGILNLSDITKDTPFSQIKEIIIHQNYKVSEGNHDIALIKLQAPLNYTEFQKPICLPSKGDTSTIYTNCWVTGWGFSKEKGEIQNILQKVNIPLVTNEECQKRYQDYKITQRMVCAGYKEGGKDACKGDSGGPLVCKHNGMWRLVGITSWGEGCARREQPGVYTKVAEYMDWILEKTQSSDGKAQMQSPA
In short: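 Rates of AMC release (excitation 360 nm, emission 460 nm) from 100 μM final Z-PheArg-AMC, 4% DMSO, were taken over the linear phase, typically 5 to 45 minutes. IC50 from four-parameter non-linear regression; Ki also derived.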

[1] = Plasma stability profiling Method #1 (MALDI-TOF, 35% plasma), rat plasma; assay type: in vitro ADME; conditions: method #1
Description: A rapid plasma stability profiling assay was developed that employed mass spectrometric detection (MALDI-TOF, Voyager DE, Applied Biosystems) of the parent mass, until the time when the parent peptide mass was no longer observable. Specifically, 200 uM of peptide was incubated in the presence of 35% rat or human plasma (Sera labs, using citrate as anticoagulant) at 37 deg C., which was supplemented with 1×PBS (derived from a 10×PBS Stock, Sigma). At various time points (i.e. t=0, 3, 24 hrs, henceafter daily up to 10 days), 2 uL of sample was added to 18 uL of 30 mM ammonium bicarbonate in a 1:1 mixture of acetonitrile:H2O. Samples were frozen at −80 deg C. until the time of analysis. For mass spectrometric analysis that determines the approximate detection window of the peptide, the acetonitrile:H2O-diluted sample of a given time point was spotted directly (0.7 uL) onto the MALDI plate. Matrix (alpha-cyanocinnamic acid, Sigma, prepared as a saturated solution in 1:1 acetonitrile:water containing 0.1% trifluoroacetic acid) was layered over the sample (1 uL). At a similar laser intensity setting on the MALDI TOF, the time could then be determined until parent peptide was no longer detectable. It should be noted that this is a qualitative assay serves to detect relative changes in plasma stability.

SMILES: CCCC1(CCC)NC(=O)[C@@H](NC(C)=O)CSCc2cc3cc(c2)CSC[C@H](NC(=O)[C@H](CCCNC(=N)N)NC(=O)[C@H](C)NC(=O)[C@@H]2CCCN2C(=O)[C@H](Cc2c[nH]c4ccccc24)NC1=O)C(=O)N[C@@H](CC(C)C)C(=O)N[C@@H](Cc1c[nH]cn1)C(=O)N[C@@H](CCC(N)=O)C(=O)N[C@@H](CC(=O)O)C(=O)N[C@@H](CC(C)C)C(=O)N[C@H](C(N)=O)CSC3 [Ac-(06-34-18) Dpg1] (Ac-C[Dpg]WPARCLHQDLC-NH2; linker 1-7-13 via TBMB)
Ki (human plasma Kallikrein; Table 14, read-out: Ki (nM) (human kallikrein)): 1.09 nM | Ki (human plasma Kallikrein; read-out: Ki / affinity to human Kallikrein): 1.1 nM | Observable in rat plasma, for days ([1]; Table 14): 2 days

SMILES: CC(=O)N[C@H]1CSCc2cc3cc(c2)CSC[C@H](NC(=O)[C@H](CCCNC(=N)N)NC(=O)[C@H](C)NC(=O)[C@@H]2CCCN2C(=O)[C@H](Cc2ccc(-c4ccccc4)cc2)NC(=O)[C@H](CO)NC1=O)C(=O)N[C@@H](CC(C)C)C(=O)N[C@@H](Cc1c[nH]cn1)C(=O)N[C@@H](CCC(N)=O)C(=O)N[C@@H](CC(=O)O)C(=O)N[C@@H](CC(C)C)C(=O)N[C@H](C(N)=O)CSC3 [Ac-(06-34-18) 4,4,BPal2] (Ac-CS[Bip]PARCLHQDLC-NH2; linker 1-7-13 via TBMB)
Observable in rat plasma, for days ([1]; Table 12): 2 days

SMILES: CC(=O)N[C@H]1CSCc2cc3cc(c2)CSC[C@H](NC(=O)[C@H](CCCNC(=N)N)NC(=O)[C@H](C)NC(=O)[C@@H]2CCCN2C(=O)[C@H](Cc2ccc4ccccc4c2)NC(=O)[C@H](CO)NC1=O)C(=O)N[C@@H](CC(C)C)C(=O)N[C@@H](Cc1c[nH]cn1)C(=O)N[C@@H](CCC(N)=O)C(=O)N[C@@H](CC(=O)O)C(=O)N[C@@H](CC(C)C)C(=O)N[C@H](C(N)=O)CSC3 [Ac-(06-34-18) 2NAL2] (Ac-CS[2Nal]PARCLHQDLC-NH2; linker 1-7-13 via TBMB)
Observable in rat plasma, for days ([1]; Table 12): 2 days

SMILES: CC(=O)N[C@H]1CSCc2cc3cc(c2)CSC[C@H](NC(=O)[C@H](CCCNC(=N)N)NC(=O)CCNC(=O)[C@@H]2CCCN2C(=O)[C@H](Cc2c[nH]c4ccccc24)NC(=O)[C@H](CO)NC1=O)C(=O)N[C@@H](CC(C)C)C(=O)N[C@@H](Cc1c[nH]cn1)C(=O)N[C@@H](CCC(N)=O)C(=O)N[C@@H](CC(=O)O)C(=O)N[C@@H](CC(C)C)C(=O)N[C@H](C(N)=O)CSC3 [Ac-(06-34-18) β-Ala4] (Ac-CSWP[βAla]RCLHQDLC-NH2; linker 1-7-13 via TBMB)
Observable in rat plasma, for days ([1]; Table 14): 10 days

SMILES: CC(=O)N[C@H]1CSCc2cc3cc(c2)CSC(C)(C)[C@H](NC(=O)[C@H](CCCNC(=N)N)NC(=O)[C@H](C)NC(=O)[C@@H]2CCCN2C(=O)[C@H](Cc2c[nH]c4ccccc24)NC(=O)[C@H](CO)NC1=O)C(=O)N[C@@H](CC(C)C)C(=O)N[C@@H](Cc1c[nH]cn1)C(=O)N[C@@H](CCC(N)=O)C(=O)N[C@@H](CC(=O)O)C(=O)N[C@@H](CC(C)C)C(=O)N[C@H](C(N)=O)CSC3 [Ac-(06-34-18) Cys2ToPen2] (Ac-CSWPAR[Pen]LHQDLC-NH2; linker 1-7-13 via TBMB)
Observable in rat plasma, for days ([1]; Table 14): 5 days

SMILES: CC(=O)N[C@H]1CSCc2cc3cc(c2)CSC[C@H](NC(=O)[C@H](CCCNC(=N)N)NC(=O)[C@H](C)NC(=O)[C@@H]2CCCN2C(=O)[C@H](CC2CCCCC2)NC(=O)[C@H](CO)NC1=O)C(=O)N[C@@H](CC(C)C)C(=O)N[C@@H](Cc1c[nH]cn1)C(=O)N[C@@H](CCC(N)=O)C(=O)N[C@@H](CC(=O)O)C(=O)N[C@@H](CC(C)C)C(=O)N[C@H](C(N)=O)CSC3 [Ac-(06-34-18) Cha2] (Ac-CS[Cha]PARCLHQDLC-NH2; linker 1-7-13 via TBMB)
Observable in rat plasma, for days ([1]; Table 12): 2 days

SMILES: CC(=O)N[C@H]1CSCc2cc3cc(c2)CSC[C@H](NC(=O)[C@H](CCCNC(=N)N)NC(=O)[C@H](C)NC(=O)C(C)(C)NC(=O)[C@H](Cc2c[nH]c4ccccc24)NC(=O)[C@H](CO)NC1=O)C(=O)N[C@@H](CC(C)C)C(=O)N[C@@H](Cc1c[nH]cn1)C(=O)N[C@@H](CCC(N)=O)C(=O)N[C@@H](CC(=O)O)C(=O)N[C@@H](CC(C)C)C(=O)N[C@H](C(N)=O)CSC3 [Ac-(06-34-18) Aib3] (Ac-CSW[Aib]ARCLHQDLC-NH2; linker 1-7-13 via TBMB)
Observable in rat plasma, for days ([1]; Table 13): 2 days

SMILES: CC(=O)N[C@H]1CSCc2cc3cc(c2)CSC[C@H](NC(=O)[C@H](CCCNC(=N)N)NC(=O)[C@H](Cc2ccc(O)cc2)NC(=O)[C@@H]2CCCN2C(=O)[C@H](Cc2c[nH]c4ccccc24)NC(=O)[C@H](CO)NC1=O)C(=O)N[C@@H](CC(C)C)C(=O)N[C@@H](Cc1c[nH]cn1)C(=O)N[C@@H](CCC(N)=O)C(=O)N[C@@H](CC(=O)O)C(=O)N[C@@H](CC(C)C)C(=O)N[C@H](C(N)=O)CSC3 [Ac-(06-34-18) WPYR] (Ac-CSWPYRCLHQDLC-NH2; linker 1-7-13 via TBMB)
Observable in rat plasma, for days ([1]; Table 21): 2 days

Other lines, results leading:

Observable in rat plasma, for days ([1]; Table 13): 2 days
SMILES: CC(=O)N[C@H]1CSCc2cc3cc(c2)CSC[C@H](NC(=O)[C@H](CCCNC(=N)N)NC(=O)[C@H](C)NC(=O)[C@@H]2C[C@@H](F)CN2C(=O)[C@H](Cc2c[nH]c4ccccc24)NC(=O)[C@H](CO)NC1=O)C(=O)N[C@@H](CC(C)C)C(=O)N[C@@H](Cc1c[nH]cn1)C(=O)N[C@@H](CCC(N)=O)C(=O)N[C@@H](CC(=O)O)C(=O)N[C@@H](CC(C)C)C(=O)N[C@H](C(N)=O)CSC3 [Ac-(06-34-18) 4FluoPro3] (Ac-CSW[Pro(trans-4-F)]ARCLHQDLC-NH2; linker 1-7-13 via TBMB)

Observable in rat plasma, for days ([1]; Table 13): 2 days
SMILES: CC(=O)N[C@H]1CSCc2cc3cc(c2)CSC[C@H](NC(=O)[C@H](CCCNC(=N)N)NC(=O)[C@H](C)NC(=O)[C@@H]2CCCCN2C(=O)[C@H](Cc2c[nH]c4ccccc24)NC(=O)[C@H](CO)NC1=O)C(=O)N[C@@H](CC(C)C)C(=O)N[C@@H](Cc1c[nH]cn1)C(=O)N[C@@H](CCC(N)=O)C(=O)N[C@@H](CC(=O)O)C(=O)N[C@@H](CC(C)C)C(=O)N[C@H](C(N)=O)CSC3 [Ac-(06-34-18) Pip3] (Ac-CSW[Pip]ARCLHQDLC-NH2; linker 1-7-13 via TBMB)

Observable in rat plasma, for days ([1]; Table 13): 2 days
SMILES: CC(=O)N[C@H]1CSCc2cc3cc(c2)CSC[C@H](NC(=O)[C@H](CCCNC(=N)N)NC(=O)[C@H](C)NC(=O)[C@@H]2Cc4ccccc4CN2C(=O)[C@H](Cc2c[nH]c4ccccc24)NC(=O)[C@H](CO)NC1=O)C(=O)N[C@@H](CC(C)C)C(=O)N[C@@H](Cc1c[nH]cn1)C(=O)N[C@@H](CCC(N)=O)C(=O)N[C@@H](CC(=O)O)C(=O)N[C@@H](CC(C)C)C(=O)N[C@H](C(N)=O)CSC3 [Ac-(06-34-18) Tic3] (Ac-CSW[Tic]ARCLHQDLC-NH2; linker 1-7-13 via TBMB)

Observable in rat plasma, for days ([1]; Table 13): 2 days
SMILES: CC(=O)N[C@H]1CSCc2cc3cc(c2)CSC[C@H](NC(=O)[C@H](CCCNC(=N)N)NC(=O)[C@H](C)NC(=O)[C@@H]2Cc4ccccc4N2C(=O)[C@H](Cc2c[nH]c4ccccc24)NC(=O)[C@H](CO)NC1=O)C(=O)N[C@@H](CC(C)C)C(=O)N[C@@H](Cc1c[nH]cn1)C(=O)N[C@@H](CCC(N)=O)C(=O)N[C@@H](CC(=O)O)C(=O)N[C@@H](CC(C)C)C(=O)N[C@H](C(N)=O)CSC3 [Ac-(06-34-18) Ind3] (Ac-CSW[X2]ARCLHQDLC-NH2; linker 1-7-13 via TBMB)

Observable in rat plasma, for days ([1]; Table 13): 2 days
SMILES: CC(=O)N[C@H]1CSCc2cc3cc(c2)CSC[C@H](NC(=O)[C@H](CCCNC(=N)N)NC(=O)[C@H](C)NC(=O)[C@@H]2C[C@@H](O)CN2C(=O)[C@H](Cc2c[nH]c4ccccc24)NC(=O)[C@H](CO)NC1=O)C(=O)N[C@@H](CC(C)C)C(=O)N[C@@H](Cc1c[nH]cn1)C(=O)N[C@@H](CCC(N)=O)C(=O)N[C@@H](CC(=O)O)C(=O)N[C@@H](CC(C)C)C(=O)N[C@H](C(N)=O)CSC3 [Ac-(06-34-18) HyP3] (Ac-CSW[Hyp]ARCLHQDLC-NH2; linker 1-7-13 via TBMB)

Observable in rat plasma, for days ([1]; Table 13): 2 days
SMILES: CC(=O)N[C@H]1CSCc2cc3cc(c2)CSC[C@H](NC(=O)[C@H](CCCNC(=N)N)NC(=O)[C@H](C)NC(=O)[C@@H]2C[C@@H](c4ccccc4)CN2C(=O)[C@H](Cc2c[nH]c4ccccc24)NC(=O)[C@H](CO)NC1=O)C(=O)N[C@@H](CC(C)C)C(=O)N[C@@H](Cc1c[nH]cn1)C(=O)N[C@@H](CCC(N)=O)C(=O)N[C@@H](CC(=O)O)C(=O)N[C@@H](CC(C)C)C(=O)N[C@H](C(N)=O)CSC3 [Ac-(06-34-18) 4Phenyl Pro3] (Ac-CSW[Pro(trans-4-Ph)]ARCLHQDLC-NH2; linker 1-7-13 via TBMB)

Observable in rat plasma, for days ([1]; Table 14): 2 days
SMILES: CC[C@@H]1NC(=O)[C@@H]2CCCN2C(=O)[C@H](Cc2c[nH]c3ccccc23)NC(=O)[C@H](CO)NC(=O)[C@@H](NC(C)=O)CSCc2cc3cc(c2)CSC[C@H](NC(=O)[C@H](CCCNC(=N)N)NC1=O)C(=O)N[C@@H](CC(C)C)C(=O)N[C@@H](Cc1c[nH]cn1)C(=O)N[C@@H](CCC(N)=O)C(=O)N[C@@H](CC(=O)O)C(=O)N[C@@H](CC(C)C)C(=O)N[C@H](C(N)=O)CSC3 [Ac-(06-34-18) Aba4] (Ac-CSWP[Abu]RCLHQDLC-NH2; linker 1-7-13 via TBMB)
